According to ChEMBL document CHEMBL3507680, “University of Dundee, Gates Library screen for HepG2 cell viability”:

Experiment: Human HepG2 cell viability assay in 384 well format
Type: toxicity, cell-based
Parameters: dose 125 nL, time 70.5 hour; cytotoxicity at 70.5 h: concentration not given beside the values
Settings: HepG2 cells, read-out: Inhibition

Compound | cytotoxicity at 70.5 h [%]
CC(C)(C)c1nc(CN(Cc2ccccc2F)C2CCCCC2)no1 | -8.5
Cn1cc(NC(=O)Cc2cccs2)c(=O)n(C)c1=O | -9.77
CC(C)C(NC(=O)NCc1cccnc1N(C)C)c1cccs1 (stereo unspecified) | -20.8
CN1CCN([C@@H]2CCN(Cc3cccc(-n4cccn4)c3)C[C@H]2O)CC1 | 2.97
Cc1cc(N2CCN(C(=O)c3cnn(C(C)C)c3)CC2)cc(C)n1 | 7.11
Cn1nc(COCC2CC2)c2c1CN(CC1CC1)CC2 | -0.347
Cc1cccc(CN2C[C@@H]3COC[C@H](NS(C)(=O)=O)[C@@H]3C2)n1 | -15.5
Cc1cc(S(C)(=O)=O)c(C)c(S(=O)(=O)NCC2CCCO2)c1 (stereo unspecified) | -16.8
CC(=O)c1cccc(NC(=O)NCCc2nnc[nH]2)c1 | -10.6
CC(=O)NC1CCCN(c2ccc(C#N)cc2C(F)(F)F)C1 (stereo unspecified) | -0.014
CCc1ccccc1N1CC(c2nnc(N)s2)CC1=O (stereo unspecified) | -13.1
CSc1ccc(Cl)c(C(=O)N2CCCC(CNS(C)(=O)=O)C2)c1 (stereo unspecified) | 17.2
O=C(NC1CCCC1)O[C@H]1COCCN(c2nc3ccccc3o2)C1 | -3.6
Cc1nnc(CN(Cc2ccco2)Cc2cccc3c2OCO3)n1C | -6.18
Cn1nc(-c2ccc(Cl)cc2)c(Br)c1C(=O)O | -23.3
O=C(c1ccsc1)N1CCO[C@@H]2CN(Cc3ccco3)CC[C@@H]2C1 | 0.973
CCCN1C(=O)C2(CCCCC2)NC1c1c[nH]nc1-c1cccnc1 (stereo unspecified) | 12.8
CN(C)[C@@H]1CN(C(=O)c2ccc3ccccc3n2)C[C@H]1O | -7.72
CC1N(C)C(=O)COC12CCN(C(=O)CCc1ccccc1)CC2 (stereo unspecified) | 5.92

Compound | cytotoxicity at 70.5 h [%]
Cc1nn(CCC(=O)NC2CCS(=O)(=O)C2)c(C)c1Br (stereo unspecified) | -0.845
CSC(C)C(=O)N(C)CC(=O)Nc1ccc(Br)cn1 (stereo unspecified) | -3.72
Cc1ccc(CNC(=O)NC2CCCc3c2cnn3CCO)cn1 (stereo unspecified) | -11.1
CCC1CN(C(=O)c2cc(CN(C)CCc3ccccc3)on2)CCO1 (stereo unspecified) | -7.15
CCOc1cc(C)nc(N2CCN(C(=O)c3cscn3)CC2)n1 | -4.61
COc1ccc(C2(NCc3c(C)nc4c(C)cccn34)CCCC2)cc1 | -5.54
Cc1cc(C)nc(N2CCOC(c3cc(CCO)[nH]n3)C2)n1 (stereo unspecified) | -8.46
CC(=O)N1CCOC(CNC(=O)c2cccc(CCC(C)(C)O)c2)C1 (stereo unspecified) | 8.87
CN(C)S(=O)(=O)N1C[C@@H](OCc2ccccn2)[C@H]2OCCC[C@H]21 | -3.83
Cc1nnc(SCCC(=O)N(C)Cc2ccc(F)cc2F)[nH]1 | 4.62
Cc1ncc(CN2CCC(c3nc(O)cc(-c4ccsc4)n3)CC2)cn1 | -3.5
CCNC(=O)C1CCN(c2nc(-c3ccco3)nc3c2CCNCC3)C1 (stereo unspecified) | -7.78
O=c1c2cnc(N3CCOCC3)nc2ccn1-c1ccccc1 | -7.35
Cn1cccc1C(=O)N1CCC2(CC1)CCN2S(C)(=O)=O | -4.8
CN(Cc1cn2c(n1)CN(Cc1nccs1)CC2)Cc1ccco1 | -7.68
Cc1nc(CN2CCO[C@@H]3CN(Cc4ccsc4)C[C@@H]3C2)cs1 | 0.892
COCCN1CCC2(CCCN(c3ncc(F)cn3)C2)C1 (stereo unspecified) | -3.02
Cn1cc(CCC(=O)N2C[C@H]3CC[C@@H]2CN(Cc2ccccc2)C3)cn1 | -5.6
CC(NCc1cnc(C2CCC2)s1)c1ccc(-n2cccn2)cc1 (stereo unspecified) | -8.33

Compound | cytotoxicity at 70.5 h [%]
Cc1ccc(C(=O)N2C[C@@H]3CN(c4ncccn4)C[C@@H]3C2)cn1 | -9.68
CC(NC(=O)NC1CCN(Cc2ccncc2)CC1)c1ccccc1F (stereo unspecified) | -22.4
Cn1ncc2c1C(COCC1CC1)CN(Cc1ccc(F)cc1)C2 (stereo unspecified) | 25.3
Cn1c(CN2CCCC2)nnc1C1CCCN(C(=O)N2CCOCC2)C1 (stereo unspecified) | -3.17
CC(C)n1cnnc1CN(C)C(=O)CCn1cnc2ccccc2c1=O | -17.5
COc1ccc(C(NCc2cccc(O)c2)C2CC2)cc1 (stereo unspecified) | 16.8
O=c1[nH][nH]cc1-c1ccnc(NCCN2CCCC2)n1 | 50.4
Cc1ccc(C(=O)N2CCSCC2)cc1NC(=O)NCCO | -4.73
NCCn1nc(C2CCN(Cc3ccccc3)C2)c2nccnc21 (stereo unspecified) | 0.0423
CN(Cc1ccc(-n2cccn2)cc1)c1cc(N)nc(N)n1 | 18.4
CCn1ccnc1CN1CCC(Oc2cccc(F)c2)(C(=O)O)CC1 | -4.69
CN(C)c1ccc(NC(=O)NCc2cccs2)cn1 | -6.16
CC(C)c1nc(C2CCCN(C(=O)c3ccc(N(C)C)nn3)C2)no1 (stereo unspecified) | -1.24
Cc1cc(CCC2CN(Cc3ccccc3C(=O)O)CCO2)ncn1 (stereo unspecified) | -3.08
CCc1nc(C2CCCN2CCCS(N)(=O)=O)no1 (stereo unspecified) | -3.37
O=C1Nc2ccccc2CNC12CCN(CC1CCNC1)CC2 (stereo unspecified) | -11
Cc1nn(C)c2sc(C(=O)N3CCCC(n4ccnc4C)C3)cc12 (stereo unspecified) | -7.74
CNC(=O)[C@@H]1COC[C@H]2CN(C(=O)c3ccc(C)c(C)c3)C[C@H]21 | -7.79
